The assay deals with T1, ΔF508-CFTR (Homo sapiens, UniProt P13569, DEL508-508).
T1 construct: Primary lung epithelial cells homozygous for the Cystic Fibrosis-causing ΔF508 mutation were differentiated; endogenous in cells; host or cells: primary human bronchial epithelial cells (hBE), ΔF508/ΔF508
Kind of assay: hBE equivalent current (Ieq) assay, CFTR activity. It counts as cell-based. Particulars: relative to a CFTR amplifier at 3 μM, ΔF508 homozygous hBE, 24 h treatment; for Activity 3 μM: compound at 3 μM; for Activity 10 μM: compound at 10 μM. The method, then:
Primary lung epithelial cells homozygous for the Cystic Fibrosis-causing ΔF508 mutation were differentiated for a minimum of 4 weeks in an air-liquid interface on Costar 24 well HTS filter plates prior to the equivalent current (Ieq) measurements. Cells were apically mucus-washed for 30 minutes 24 h prior to treatment with compounds. The basolateral media was removed and replaced with media containing the compound of interest diluted to its final concentration from DMSO stocks. Treated cells were incubated at 37° C. and 5% CO2 for 24 hours. At the end of the treatment period, the media was changed to the Ieq experimental solution for 2 hours before the experiment and plates are maintained in a CO2-free incubator during this period. The plates containing the cells were then placed in pre-warmed heating blocks at 36° C.±0.5 for 15 minutes before measurements are taken. The transepithelial voltage (VT) and conductance (GT) were measured using a custom 24 channel current clamp (TECC-24) with 24 well electrode manifold. The Ieq assay measurements were made following additions with standardized time periods:
1. The baseline VT and GT values were measured for approximately 20 minutes.
2. Benzamil was added to block ENaC for 15 minutes.
3. Forskolin plus VX-770 were added to maximally activate ΔF508-CFTR for 27 minutes.
4. Bumetanide was added to inhibit the NaK2Cl cotransporter and shut-off secretion of chloride.
The activity data captured was the area under the curve (AUC) for the traces of the equivalent chloride current. The AUC was collected from the time of the forskolin/VX-770 addition until the inhibition by bumetanide addition. Correction in response to compound treatment was scored as the increase in the AUC for compound-treated samples over that of vehicle-treated samples.
The results are shown below in Table 1. + indicates activity <150% of a CFTR amplifier with compound at concentration shown and amplifier at 3 μM; ++ indicates activity >150% of a CFTR amplifier with compound at concentration shown and amplifier at 3 μM.

T1 sequence (P13569 with tags, fused parts or gaps DEL508-508): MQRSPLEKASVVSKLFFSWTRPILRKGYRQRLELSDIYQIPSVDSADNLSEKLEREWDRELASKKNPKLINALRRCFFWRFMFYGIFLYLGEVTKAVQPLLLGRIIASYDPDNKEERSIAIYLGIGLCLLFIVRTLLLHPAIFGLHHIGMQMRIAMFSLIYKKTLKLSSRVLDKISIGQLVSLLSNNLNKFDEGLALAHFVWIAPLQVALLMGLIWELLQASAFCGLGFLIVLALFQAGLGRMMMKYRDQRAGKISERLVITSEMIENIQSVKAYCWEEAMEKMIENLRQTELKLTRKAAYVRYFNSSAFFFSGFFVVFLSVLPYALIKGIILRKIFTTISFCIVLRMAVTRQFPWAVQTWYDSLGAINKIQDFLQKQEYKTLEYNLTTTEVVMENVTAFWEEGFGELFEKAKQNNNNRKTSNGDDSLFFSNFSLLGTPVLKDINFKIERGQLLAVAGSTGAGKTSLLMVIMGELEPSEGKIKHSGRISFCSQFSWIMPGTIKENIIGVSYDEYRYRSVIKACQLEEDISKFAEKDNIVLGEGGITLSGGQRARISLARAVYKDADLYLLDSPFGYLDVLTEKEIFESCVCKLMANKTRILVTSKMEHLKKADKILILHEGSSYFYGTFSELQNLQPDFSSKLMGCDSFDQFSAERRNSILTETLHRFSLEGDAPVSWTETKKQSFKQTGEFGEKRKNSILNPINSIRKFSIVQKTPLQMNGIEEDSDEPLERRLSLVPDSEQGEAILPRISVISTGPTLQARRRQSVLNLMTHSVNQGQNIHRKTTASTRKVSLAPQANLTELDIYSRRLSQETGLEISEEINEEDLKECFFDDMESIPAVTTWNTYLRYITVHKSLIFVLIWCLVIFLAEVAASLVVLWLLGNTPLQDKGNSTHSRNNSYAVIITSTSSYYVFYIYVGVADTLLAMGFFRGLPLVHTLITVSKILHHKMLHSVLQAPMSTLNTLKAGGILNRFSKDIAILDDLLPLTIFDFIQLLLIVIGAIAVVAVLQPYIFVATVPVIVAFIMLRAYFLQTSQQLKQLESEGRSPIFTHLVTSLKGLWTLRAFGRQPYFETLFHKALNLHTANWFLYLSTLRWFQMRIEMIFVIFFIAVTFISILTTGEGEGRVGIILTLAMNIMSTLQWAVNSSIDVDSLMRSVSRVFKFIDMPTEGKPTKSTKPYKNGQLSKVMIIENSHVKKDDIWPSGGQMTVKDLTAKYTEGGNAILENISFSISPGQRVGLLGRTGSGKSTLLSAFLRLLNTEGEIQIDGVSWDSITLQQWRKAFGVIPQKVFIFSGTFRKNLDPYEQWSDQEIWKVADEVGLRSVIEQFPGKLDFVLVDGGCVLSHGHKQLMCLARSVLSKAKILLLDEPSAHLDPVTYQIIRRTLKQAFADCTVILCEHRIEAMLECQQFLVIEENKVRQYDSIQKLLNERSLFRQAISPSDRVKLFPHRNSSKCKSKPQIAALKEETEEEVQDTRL

With `COc1cccc(-c2nn(C(C)C(=O)Nc3cc(F)cc(F)c3)c(=O)cc2C)c1` (centres unmarked) [Compound 21, N-(3,5-Difluorophenyl)-2-[3-(3-methoxyphenyl)-4-methyl-6-oxo-1,6-dihydropyridazin-1-yl]propanamide], the “Activity 3 μM” value was “+ (activity <150% of a CFTR amplifier with compound at concentration shown and amplifier at 3 μM)”; the “Activity 10 μM” value is “+ (activity <150% of a CFTR amplifier with compound at concentration shown and amplifier at 3 μM)”.
Turning to `COc1cccc(-c2cc(Cl)c(=O)n(C(C)C(=O)Nc3cc(F)cc(F)c3)n2)c1` (centres unmarked) [Compound 22, 2-(5-Chloro-3-(3-methoxyphenyl)-6-oxopyridazin-1(6H)-yl)-N-(3,5-difluorophenyl)propanamide], the “Activity 3 μM” value was “+ (activity <150% of a CFTR amplifier with compound at concentration shown and amplifier at 3 μM)”; the “Activity 10 μM” value is “+ (activity <150% of a CFTR amplifier with compound at concentration shown and amplifier at 3 μM)”.
With `COc1cccc(-c2nn(C(C)C(=O)Nc3cc(F)cc(F)c3)c(=O)cc2Cl)c1` (centres unmarked) [Compound 23, 2-(4-Chloro-3-(3-methoxyphenyl)-6-oxopyridazin-1(6H)-yl)-N-(3,5-difluorophenyl)propanamide], the “Activity 10 μM” value is “+ (activity <150% of a CFTR amplifier with compound at concentration shown and amplifier at 3 μM)”.
For the molecule `COc1cccc(-c2nn(C(C)C(=O)Nc3cc(F)cc(F)c3)c(=O)cc2-c2ccccc2)c1` (centres unmarked) [Compound 24, N-(3,5-Difluorophenyl)-2-[3-(3-methoxyphenyl)-6-oxo-4-phenyl-1,6-dihydropyridazin-1-yl]propanamide], the “Activity 3 μM” value was “++ (activity >150% of a CFTR amplifier with compound at concentration shown and amplifier at 3 μM)”; the “Activity 10 μM” value is “++ (activity >150% of a CFTR amplifier with compound at concentration shown and amplifier at 3 μM)”.
For `COc1cccc(-c2cc(-c3ccccc3)c(=O)n(C(C)C(=O)Nc3cc(F)cc(F)c3)n2)c1` (centres unmarked) [Compound 25, N-(3,5-Difluorophenyl)-2-(3-(3-methoxyphenyl)-6-oxo-5-phenylpyridazin-1(6H)-yl)propanamide], the “Activity 10 μM” value was “+ (activity <150% of a CFTR amplifier with compound at concentration shown and amplifier at 3 μM)”.
Turning to `COc1cccc(-c2ccc(=O)n(C(C)C(=O)Nc3cc(O)c(C(C)(C)C)cc3C(C)(C)C)n2)c1` (centres unmarked) [Compound 26, N-(2,4-Di-tert-butyl-5-hydroxyphenyl)-2-[3-(3-methoxyphenyl)-6-oxo-1,6-dihydropyridazin-1-yl]propanamide], the “Activity 3 μM” value was “+ (activity <150% of a CFTR amplifier with compound at concentration shown and amplifier at 3 μM)”; the “Activity 10 μM” value is “+ (activity <150% of a CFTR amplifier with compound at concentration shown and amplifier at 3 μM)”.
`COc1cccc(-c2ccc(=O)n(C(C)C(=O)Nc3ccc(Cl)c(Cl)c3)n2)c1` (centres unmarked) [Compound 27, N-(3,4-Dichlorophenyl)-2-[3-(3-methoxyphenyl)-6-oxo-1,6-dihydropyridazin-1-yl]propanamide]: the “Activity 3 μM” value was “++ (activity >150% of a CFTR amplifier with compound at concentration shown and amplifier at 3 μM)”; the “Activity 10 μM” value was “++ (activity >150% of a CFTR amplifier with compound at concentration shown and amplifier at 3 μM)”.
Take `CC(C(=O)Nc1ccc(C(F)(F)F)cc1)n1nc(-c2ccccc2)ccc1=O` (centres unmarked) [Compound 28, 2-(6-oxo-3-phenyl-1,6-dihydropyridazin-1-yl)-N-[4-(trifluoromethyl)phenyl]propanamide]: the “Activity 3 μM” value was “++ (activity >150% of a CFTR amplifier with compound at concentration shown and amplifier at 3 μM)”; the “Activity 10 μM” value was “++ (activity >150% of a CFTR amplifier with compound at concentration shown and amplifier at 3 μM)”.

Values taken from patent US20190256474A1, “N-PHENYL-2-(3-PHENYL-6-OXO-1,6-DIHYDROPYRIDAZIN-1-YL)ACETAMIDE DERIVATIVES FOR TREATING CYSTIC FIBROSIS” (Proteostasis Therapeutics, Inc., priority 2016, published 2019).
